Key:
[1] = tested on: Sprague-Dawley rats; experiment: Open field odor avoidance; format: in vivo, rat; conditions: ten minute exposure, 12 animals ±SEM; 1 ml urine or 5 μl amine
Description: We next examined behavioral responses of rodents to 2-phenylethylamine. […] Behaviors of rats in a square-shaped arena were recorded and analyzed following placement of test stimuli in a pseudorandom corner (FIG. 5A). […] Thus, 2-phenylethylamine, in the absence of other predator odor cues, was sufficient to evoke rat avoidance behavior.
Open field behavioral analysis. Rat behavioral responses to odors in the open field were measured as described previously (Fendt M (2006) Exposure to urine of canids and felids, but not of herbivores, induces defensive behavior in laboratory rats. Journal of chemical ecology 32(12):2617-2627) with the following modifications. Adult Sprague-Dawley rats (240-340 g; Janvier, Le Genest St. Isle, France) were placed in the center of a 45 cm×45 cm Plexiglass arena (TSE Systems, Bad Homburg, Germany) equipped with infrared sensors (distance 14 mm, illumination 80-120 lux). The arena contained glass dishes (36 mm) in each corner, with one dish containing test stimuli. Prior to testing, animals were habituated to the arena by introducing them for three consecutive days. […] Location of the rats was automatically recorded using the infrared detectors and analyzed (TSE Systems software). Statistical significance was measured using Wilcoxon Signed Test (**p<0.01; comparison with chance level (25%)). […]

[2] = target: T1, rTAAR7d (Rattus norvegicus, UniProt Q923X5); experiment: CRE-SEAP reporter gene assay in HEK293 cells transfected with rTAAR7d; format: cell-based; parameters: Full Taar coding regions were cloned into pcDNA3.1; expressed in transfected cells; host or cells: HEK293; conditions: FIG. 11A, functional with or without 'Rho tag', EC50 ± s.e.m., 4-parameter Hill equation
T1 sequence (Q923X5 1-358): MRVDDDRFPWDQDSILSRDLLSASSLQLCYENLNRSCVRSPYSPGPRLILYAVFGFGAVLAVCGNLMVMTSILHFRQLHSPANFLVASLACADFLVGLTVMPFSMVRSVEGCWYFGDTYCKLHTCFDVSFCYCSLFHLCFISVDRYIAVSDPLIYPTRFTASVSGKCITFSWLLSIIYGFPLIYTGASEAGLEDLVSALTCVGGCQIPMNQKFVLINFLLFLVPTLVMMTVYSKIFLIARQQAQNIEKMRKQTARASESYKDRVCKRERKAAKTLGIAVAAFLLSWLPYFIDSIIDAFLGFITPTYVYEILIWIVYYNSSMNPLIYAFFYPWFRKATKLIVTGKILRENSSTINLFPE
Description: FIG. 11 illustrates the dose-dependent responses of TAARs to amines. HEK293 cells were cotransfected with plasmids encoding CRE-SEAP and rTAARs (a) or mTAARs (b), incubated with concentrations of ligands indicated, and assayed for reporter activity (triplicates±s.d.). EC50 values (±s.e.m, bottom right) were calculated using SigmaPlot (Systat Software) and a 4-parameter Hill equation.
The following mixes (10 μM of each indicated compounds) were tested for their ability to activate rat TAARs. Mix 1: butylamine, dibutylamine, hexylamine. Mix 2: 2-aminopentane, isoamylamine, isobutylamine, isopropylamine. Mix 3: N,N-dimethylcyclohexylamine, 1-methylindole, tryptamine, phenylethylamine. Mix 4: indole, 1-methylpyrrolidine, 1-methylpiperidine, pyrrolidine. […]
Full Taar coding regions were cloned into pcDNA3.1-(Invitrogen) with or without a 5′ DNA extension of 69 bp encoding the first 20 amino acids of bovine rhodopsin followed by a cloning linker ([…]). […] Fluorescence was measured on an EnVision plate reader (Perkin Elmer) and SEAP activity graphed as relative fluorescence of a phosphatase substrate.
Here, we set out to identify agonists for additional mouse and rat TAARs. […] Transfected cells were incubated with test chemicals, and phosphatase activity was quantified with a fluorescent substrate as a reporter for TAAR activation. […]

Structure (SMILES) | percentage of time rats are located in the odor quadrant [1] [%] | EC50 [2] [µM]
NCCc1ccccc1 [2-phenylethylamine] | 8.0±2.0 | –
CN(C)C1CCCCC1 [N,N-DIMETHYLCYCLOHEXYLAMINE, N,N-dimethylcyclohexylamine] | – | 4.6 ± 1.1

From patent publication US20140221499A1, “NOVEL RODENT CONTROL AGENTS AND USES THEREOF” (priority 2011, published 2014)
